We go through 2 compounds from patent US20070117770A1, “Human ribosomal DNA (rDNA) and ribosomal RNA (rRNA) nucleic acids and uses thereof” (Cylene Pharmaceuticals, Inc., priority 2005, published 2007).

Common to all, as to experiment: Protein kinase inhibition assay
Common to all, as to type: biochemical

For one assay, the target named is Hck(h) (Homo sapiens, UniProt P08631). As to conditions: read-out: percent residual activity of Hck(h). Here is the method:
(§1) Certain compounds were tested for activity in protein kinase inhibition assays. All substrates were dissolved and diluted to working stocks in de-ionized water, apart from histone H1 (10× working stock in 20 mM MOPS pH 7.0), PDKtide (10× working stock in 50 mM Tris pH 7.0) ATF2 (which is typically stored at a 20× working stock in 50 mM Tris pH 7.5, 150 mM NaCl, 0.1 mM EGTA, 0.03% Brij-35, 50% glycerol, 1 mM benzamidine, 0.2 mM PMSF and 0.1% R-mercaptoethanol), KKLNRTLSFAEPG (SEQ ID NO:203) and RRRLSFAEPG (SEQ ID NO:204) (50 mM HEPES pH 7.4) and GGEEEEYFELVKKKK (SEQ ID NO:205) (20 mM MOPS pH 7.0). All kinases were pre-diluted to a 10× working concentration prior to addition into the assay. The composition of the dilution buffer for each kinase is detailed below.
In a final reaction volume of 25 μl, Hck (h) (5-10 mU) is incubated with 8 mM MOPS pH 7.0, 0.2 mM EDTA, 250 μM KVEKIGEGTYGVVYK (Cdc2 peptide) (SEQ ID NO:211), 10 mM MgAcetate and [gamma-33P-ATP] (specific activity approx. 500 cpm/pmol, concentration as required). The reaction is initiated by the addition of the MgATP mix. After incubation for 40 minutes at room temperature, the reaction is stopped by the addition of 5 μl of a 3% phosphoric acid solution. […]

The next assay has as its target IKKα(h) (Homo sapiens, UniProt O15111). The settings on record: read-out: percent residual activity of IKKα(h). Here is the method: as §1
(§2) In a final reaction volume of 25 μl, IKKa (h) (5-10 mU) is incubated with 8 mM MOPS pH 7.0, 0.2 mM EDTA, 200 μM peptide, 10 mM MgAcetate and [gamma-33P-ATP] (specific activity approx. 500 cpm/pmol, concentration as required). The reaction is initiated by the addition of the MgATP mix. After incubation for 40 minutes at room temperature, the reaction is stopped by the addition of 5 μl of a 3% phosphoric acid solution. 10 μl of the reaction is then spotted onto a P30 filtermat and washed three times for 5 minutes in 75 mM phosphoric acid and once in methanol prior to drying and scintillation counting.

Another assay has as its target Lck(h) (Homo sapiens, UniProt P06239). The settings on record: read-out: percent residual activity of Lck(h). Here is the method:
as §1
In a final reaction volume of 25 μl, Lck (h) (5-10 mU) is incubated with 50 mM Tris pH 7.5, 0.1 mM EGTA, 0.1 mM Na3VO4, 250 μM KVEKIGEGTYGVVYK (SEQ ID NO:211) (Cdc2 peptide), 10 mM MgAcetate and [gamma-33P-ATP] (specific activity approx. 500 cpm/pmol, concentration as required). The reaction is initiated by the addition of the MgATP mix. After incubation for 40 minutes at room temperature, the reaction is stopped by the addition of 5 μl of a 3% phosphoric acid solution. […]

The target of the next assay is MST2(h) (Homo sapiens, UniProt Q13188). The settings on record: read-out: percent residual activity of MST2(h). On the procedure: as §1
Chain of MST2(h) (Q13188 whole entry): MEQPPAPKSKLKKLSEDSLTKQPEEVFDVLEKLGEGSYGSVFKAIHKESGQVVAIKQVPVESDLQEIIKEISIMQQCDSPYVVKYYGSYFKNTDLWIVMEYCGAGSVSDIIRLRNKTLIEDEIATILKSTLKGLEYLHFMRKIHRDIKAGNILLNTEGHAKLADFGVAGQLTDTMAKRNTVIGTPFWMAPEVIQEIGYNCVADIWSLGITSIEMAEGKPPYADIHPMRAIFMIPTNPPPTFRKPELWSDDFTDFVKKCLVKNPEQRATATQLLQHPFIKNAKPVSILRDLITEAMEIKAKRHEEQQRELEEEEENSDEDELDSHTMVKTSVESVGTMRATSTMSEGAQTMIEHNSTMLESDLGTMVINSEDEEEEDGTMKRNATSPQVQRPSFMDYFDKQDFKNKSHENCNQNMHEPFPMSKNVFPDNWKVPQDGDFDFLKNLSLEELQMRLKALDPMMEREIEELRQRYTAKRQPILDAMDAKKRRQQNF
as §2, with “MST2” for “IKKa”, “0.33 mg/ml myelin basic protein,” for “200 μM peptide,”

The next assay addresses PKCμ(h) (Homo sapiens, UniProt Q15139). As to conditions: read-out: percent residual activity of PKCμ(h). On the procedure: as §1
as §2, with “PKCμ” for “IKKa”, “20” for “8”, “REPES” for “MOPS”, “7.4, 0.03% Triton X-100, 30” for “7.0, 0.2 mM EDTA, 200”, “KKLNRTLSVA (SEQ ID NO:212),” for “peptide,”

A further assay addresses Ron(h) (Homo sapiens, UniProt Q04912). The settings on record: read-out: percent residual activity of Ron(h). Here is the method:
as §1
as §2, with “Ron” for “IKKa”, “250” for “200”, “KKSRGDYMTMQIG (SEQ ID NO:210),” for “peptide,”

Chain of Lck(h) (P06239 whole entry): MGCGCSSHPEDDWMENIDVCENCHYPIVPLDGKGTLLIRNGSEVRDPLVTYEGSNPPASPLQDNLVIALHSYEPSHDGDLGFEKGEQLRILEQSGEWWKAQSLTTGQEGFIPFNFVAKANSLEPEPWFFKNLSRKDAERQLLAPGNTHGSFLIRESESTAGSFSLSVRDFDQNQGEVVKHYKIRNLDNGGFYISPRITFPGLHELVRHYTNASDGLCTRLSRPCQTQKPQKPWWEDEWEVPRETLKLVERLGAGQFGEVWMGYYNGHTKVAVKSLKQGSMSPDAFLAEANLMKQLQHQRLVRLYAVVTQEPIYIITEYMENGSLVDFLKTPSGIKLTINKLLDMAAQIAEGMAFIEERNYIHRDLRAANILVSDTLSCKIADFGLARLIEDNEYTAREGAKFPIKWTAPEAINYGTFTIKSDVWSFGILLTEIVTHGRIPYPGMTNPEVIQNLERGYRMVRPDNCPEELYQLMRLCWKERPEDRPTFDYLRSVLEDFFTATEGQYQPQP
Chain of PKCμ(h) (Q15139 whole entry): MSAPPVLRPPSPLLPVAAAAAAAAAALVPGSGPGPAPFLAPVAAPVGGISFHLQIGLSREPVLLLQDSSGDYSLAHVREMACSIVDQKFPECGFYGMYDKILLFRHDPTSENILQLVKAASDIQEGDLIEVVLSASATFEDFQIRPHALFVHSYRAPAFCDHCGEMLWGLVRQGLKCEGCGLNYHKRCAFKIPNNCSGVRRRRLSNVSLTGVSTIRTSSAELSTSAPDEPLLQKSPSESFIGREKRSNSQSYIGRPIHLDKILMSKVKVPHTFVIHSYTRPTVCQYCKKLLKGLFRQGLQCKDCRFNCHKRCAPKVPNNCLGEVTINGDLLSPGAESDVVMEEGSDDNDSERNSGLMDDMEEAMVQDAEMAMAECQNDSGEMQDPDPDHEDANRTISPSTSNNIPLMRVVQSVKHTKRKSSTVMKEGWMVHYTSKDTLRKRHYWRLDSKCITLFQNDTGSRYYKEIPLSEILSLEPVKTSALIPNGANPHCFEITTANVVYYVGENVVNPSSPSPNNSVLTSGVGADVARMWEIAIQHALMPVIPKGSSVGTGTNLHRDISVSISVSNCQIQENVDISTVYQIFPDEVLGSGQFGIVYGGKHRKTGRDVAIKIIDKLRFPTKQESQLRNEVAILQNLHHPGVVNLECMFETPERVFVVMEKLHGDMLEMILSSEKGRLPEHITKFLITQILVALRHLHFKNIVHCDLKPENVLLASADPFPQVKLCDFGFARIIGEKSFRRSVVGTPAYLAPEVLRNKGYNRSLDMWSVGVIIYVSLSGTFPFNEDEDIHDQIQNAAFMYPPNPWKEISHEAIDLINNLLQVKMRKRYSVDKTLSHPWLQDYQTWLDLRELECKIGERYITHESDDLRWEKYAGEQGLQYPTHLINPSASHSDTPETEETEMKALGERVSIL
Chain of IKKα(h) (O15111 whole entry): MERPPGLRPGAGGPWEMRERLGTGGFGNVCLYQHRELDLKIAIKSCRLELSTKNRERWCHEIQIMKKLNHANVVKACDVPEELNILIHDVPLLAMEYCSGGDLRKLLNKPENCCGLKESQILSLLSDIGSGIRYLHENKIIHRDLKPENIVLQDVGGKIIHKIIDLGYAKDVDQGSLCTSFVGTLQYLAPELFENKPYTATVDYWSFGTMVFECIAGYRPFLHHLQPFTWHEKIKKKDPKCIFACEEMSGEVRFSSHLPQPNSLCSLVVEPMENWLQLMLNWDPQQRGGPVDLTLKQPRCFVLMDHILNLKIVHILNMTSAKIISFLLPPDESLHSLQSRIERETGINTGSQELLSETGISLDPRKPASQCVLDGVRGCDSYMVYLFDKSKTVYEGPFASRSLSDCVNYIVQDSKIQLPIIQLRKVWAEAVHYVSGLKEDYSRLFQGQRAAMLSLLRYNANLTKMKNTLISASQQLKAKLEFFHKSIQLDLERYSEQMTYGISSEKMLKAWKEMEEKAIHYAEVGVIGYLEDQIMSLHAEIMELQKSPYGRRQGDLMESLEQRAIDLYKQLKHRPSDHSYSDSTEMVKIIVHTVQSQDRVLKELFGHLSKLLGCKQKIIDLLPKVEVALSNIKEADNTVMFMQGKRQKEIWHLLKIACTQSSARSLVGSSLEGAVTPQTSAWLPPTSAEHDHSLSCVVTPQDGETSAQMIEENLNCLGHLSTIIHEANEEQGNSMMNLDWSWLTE
Chain of Ron(h) (Q04912 25-1400): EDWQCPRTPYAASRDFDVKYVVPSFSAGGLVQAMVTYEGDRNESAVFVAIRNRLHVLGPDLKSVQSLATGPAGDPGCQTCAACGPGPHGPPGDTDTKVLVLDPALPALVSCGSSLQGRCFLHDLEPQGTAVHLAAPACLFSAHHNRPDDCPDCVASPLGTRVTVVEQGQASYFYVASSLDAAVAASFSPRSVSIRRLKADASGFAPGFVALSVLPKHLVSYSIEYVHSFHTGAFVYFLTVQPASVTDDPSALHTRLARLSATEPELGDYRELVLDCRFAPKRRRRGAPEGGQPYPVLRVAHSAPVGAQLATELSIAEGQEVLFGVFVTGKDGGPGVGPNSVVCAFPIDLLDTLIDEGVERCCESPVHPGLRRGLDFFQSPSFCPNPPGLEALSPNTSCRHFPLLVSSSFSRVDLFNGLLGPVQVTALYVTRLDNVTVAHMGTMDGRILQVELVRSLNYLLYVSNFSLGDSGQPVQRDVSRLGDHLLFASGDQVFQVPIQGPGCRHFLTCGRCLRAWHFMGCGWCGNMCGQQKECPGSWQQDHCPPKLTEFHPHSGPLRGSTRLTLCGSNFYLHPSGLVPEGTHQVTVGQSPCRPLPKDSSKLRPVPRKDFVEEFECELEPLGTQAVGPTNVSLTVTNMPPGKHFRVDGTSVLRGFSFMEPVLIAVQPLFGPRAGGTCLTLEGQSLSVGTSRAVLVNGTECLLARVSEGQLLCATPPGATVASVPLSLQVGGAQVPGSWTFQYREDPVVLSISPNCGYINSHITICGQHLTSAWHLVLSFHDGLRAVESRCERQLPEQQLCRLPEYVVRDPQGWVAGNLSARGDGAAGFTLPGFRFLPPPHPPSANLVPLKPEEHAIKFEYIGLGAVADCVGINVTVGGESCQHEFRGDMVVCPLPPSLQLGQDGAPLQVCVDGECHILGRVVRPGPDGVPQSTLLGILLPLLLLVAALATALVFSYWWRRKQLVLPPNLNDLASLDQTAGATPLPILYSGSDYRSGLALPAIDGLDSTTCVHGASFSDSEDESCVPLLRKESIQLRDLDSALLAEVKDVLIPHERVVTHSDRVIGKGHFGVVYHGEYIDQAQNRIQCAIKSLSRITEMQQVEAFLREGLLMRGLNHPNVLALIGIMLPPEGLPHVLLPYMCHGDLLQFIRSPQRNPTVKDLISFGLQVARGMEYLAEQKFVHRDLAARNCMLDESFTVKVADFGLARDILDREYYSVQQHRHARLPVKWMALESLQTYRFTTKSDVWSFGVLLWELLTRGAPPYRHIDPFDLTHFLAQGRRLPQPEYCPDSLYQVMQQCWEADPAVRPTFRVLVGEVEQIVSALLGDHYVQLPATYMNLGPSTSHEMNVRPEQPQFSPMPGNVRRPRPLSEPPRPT
Chain of Hck(h) (P08631 whole entry): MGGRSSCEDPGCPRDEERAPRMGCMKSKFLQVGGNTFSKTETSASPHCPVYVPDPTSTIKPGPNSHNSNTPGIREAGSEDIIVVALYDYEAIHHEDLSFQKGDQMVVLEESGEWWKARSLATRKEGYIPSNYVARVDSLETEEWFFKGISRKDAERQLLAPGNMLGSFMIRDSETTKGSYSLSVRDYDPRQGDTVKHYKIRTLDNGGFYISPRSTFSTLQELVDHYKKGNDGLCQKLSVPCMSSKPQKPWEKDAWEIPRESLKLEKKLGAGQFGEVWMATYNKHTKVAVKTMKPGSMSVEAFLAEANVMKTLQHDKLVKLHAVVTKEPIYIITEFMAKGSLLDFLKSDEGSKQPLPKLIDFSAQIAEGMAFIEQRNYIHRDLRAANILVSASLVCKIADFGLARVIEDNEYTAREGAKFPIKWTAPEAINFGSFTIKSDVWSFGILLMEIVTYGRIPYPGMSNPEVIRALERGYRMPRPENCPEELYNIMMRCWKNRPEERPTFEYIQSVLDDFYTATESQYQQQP

`CN1CCCC1CCNC(=O)c1cn2c3c(c(N4CCC(c5cnccn5)C4)c(F)cc3c1=O)Oc1cc3ccccc3cc1-2` (stereo not drawn) [Compound A-1]: the remaining activity at 2.5 µM at Hck(h) turned out to be 84%; at IKKα(h), 68%; at Lck(h) it was 170%; on MST2(h), 76%; on PKCμ(h), 49%; on Ron(h) it was 71%.

Consider `CC(=O)N1CCN(c2ccc3c(=O)c(C(=O)NCCN4CCCC4)c4n(C)c5ccccc5n4c3n2)CC1` [Compound B-1], for which the remaining activity at 2.5 µM on Hck(h) was 89%; at IKKα(h) it was 118%; at Lck(h) it was 115%; at MST2(h) it was 106%; at PKCμ(h), 94%; on Ron(h), 95%.
